Test system: MCF-7 breast cancer cells
Test: Microarray gene expression analysis (Agilent whole human genome 4 x 44K; compound vs DMSO, LIMMA log2 fold change)
Format: cell-based

## Cn1ncc2c(N3CCOCC3)nc(-c3cccc(O)c3)nc21 [ETP-45658]
Gene PDGFRB (5159), apoptosis genes
  PDGFRB log2FC: 0.022
Gene PEG3 (5178), apoptosis genes
  PEG3 log2FC: 0.028
Gene PEG10 (23089), apoptosis genes
  PEG10 log2FC: 0.064
Gene PF4 (5196), apoptosis genes
  PF4 log2FC: -0.049
Gene PHLDA3 (23612), apoptosis genes
  PHLDA3 log2FC: -0.007
Gene PIK3CG (5294), apoptosis genes
  PIK3CG log2FC: -0.029
Gene PKP1 (5317), apoptosis genes
  PKP1 log2FC: -0.004
Gene PLEKHG5 (57449), apoptosis genes
  PLEKHG5 log2FC: 0.079
Gene PLSCR3 (57048), apoptosis genes
  PLSCR3 log2FC: -0.068
Gene POLB (5423), apoptosis genes
  POLB log2FC: 0.060
Gene POLD4 (Gene 57804), cell cycle genes
  log2FC: -0.353
Gene POR (5447), apoptosis genes
  POR log2FC: 0.00332
Gene POU3F4 (5456), apoptosis genes
  POU3F4 log2FC: -0.034
Gene POU4F1, apoptosis genes
  POU4F1 log2FC: 0.016
Gene PPAT (Gene 10606), cell cycle genes
  log2FC: 0.187
Gene PPP1CA (Gene 5499), cell cycle genes
  log2FC: -0.227
Gene PPP2CA (Gene 5515), cell cycle genes
  log2FC: -0.322
Gene PPP2R1A (5518), apoptosis genes
  PPP2R1A log2FC: -0.055
Gene PRAMEF8 (391002), apoptosis genes
  PRAMEF8 log2FC: 0.019
Gene PRAMEF10 (343071), apoptosis genes
  PRAMEF10 log2FC: 0.00225
Gene PRKACB (Gene 5567), cell cycle genes
  log2FC: 0.355
Gene PRKAG3 (Gene 53632), cell cycle genes
  log2FC PRKAG3: -0.00189
Gene PRKRA (8575), apoptosis genes
  PRKRA log2FC: 0.029
Gene PRLR (5618), apoptosis genes
  PRLR log2FC: -0.012
Gene PROC (5624), apoptosis genes
  PROC log2FC: 0.006
Gene PROP1 (5626), apoptosis genes
  PROP1 log2FC: -0.275
Gene PSMA1 (5682), apoptosis genes
  PSMA1 log2FC: 0.045
Gene PSMA2 (Gene 5683), cell cycle genes
  log2FC: 0.460
Gene PSMA3 (Gene 5684), cell cycle genes
  log2FC: 0.270
Gene PSMA5 (5686), apoptosis genes
  PSMA5 log2FC: -0.038
Gene PSMA5 (Gene 5686), cell cycle genes
  log2FC PSMA5: -0.038
Gene PSMA7 (5688), apoptosis genes
  PSMA7 log2FC: 0.359
Gene PSMA7 (Gene 5688), cell cycle genes
  log2FC PSMA7: 0.359
Gene PSMB3 (5691), apoptosis genes
  PSMB3 log2FC: -0.030
Gene PSMB4 (Gene 5692), cell cycle genes
  log2FC: 0.132
Gene PSMB7 (5695), apoptosis genes
  PSMB7 log2FC: -0.00851
Gene PSMB7 (Gene 5695), cell cycle genes
  log2FC PSMB7: -0.00851
Gene PSMB8 (5696), apoptosis genes
  PSMB8 log2FC: -0.045
Gene PSMC4 (5704), apoptosis genes
  PSMC4 log2FC: -0.021
Gene PSMC4 (Gene 5704), cell cycle genes
  log2FC PSMC4: -0.021
Gene PSMD2 (5708), apoptosis genes
  PSMD2 log2FC: 0.090
Gene PSMD13 (5719), apoptosis genes
  PSMD13 log2FC: -0.031
Gene PSMD14 (Gene 10213), cell cycle genes
  log2FC: 0.447
Gene PSME1 (Gene 5720), cell cycle genes
  log2FC: 0.322
Gene PSME2 (5721), apoptosis genes
  PSME2 log2FC: 0.039
Gene PTTG1 (Gene 9232), cell cycle genes
  log2FC: -0.269
Gene PYCARD (29108), apoptosis genes
  PYCARD log2FC: -0.070
Gene RAB11FIP3 (Gene 9727), cell cycle genes
  log2FC: -0.225
Gene RAD51C (Gene 5889), cell cycle genes
  log2FC RAD51C: -0.019
Gene RAE1 (Gene 8480), cell cycle genes
  log2FC RAE1: 0.005
Gene RAF1 (5894), apoptosis genes
  RAF1 log2FC: -0.038
Gene RALA (Gene 5898), cell cycle genes
  log2FC: 0.348
Gene RALB (Gene 5899), cell cycle genes
  log2FC: 0.324
Gene RAMP2 (10266), apoptosis genes
  RAMP2 log2FC: -0.017
Gene RANGAP1 (Gene 5905), cell cycle genes
  log2FC RANGAP1: -0.026
Gene RAPSN (5913), apoptosis genes
  RAPSN log2FC: -0.022
Gene RARB (5915), apoptosis genes
  RARB log2FC: 0.00564
Gene RASSF6 (166824), apoptosis genes
  RASSF6 log2FC: 0.042
Gene RBBP8 (Gene 5932), cell cycle genes
  log2FC: 0.568
Gene RBL1 (Gene 5933), cell cycle genes
  log2FC: 0.284
Gene RBM7 (Gene 10179), cell cycle genes
  log2FC: 0.349
Gene RCC1 (Gene 1104), cell cycle genes
  log2FC: -0.365
Gene REEP4 (Gene 80346), cell cycle genes
  log2FC REEP4: -0.031
Gene RET (5979), apoptosis genes
  RET log2FC: -0.021
Gene RHOT2 (89941), apoptosis genes
  RHOT2 log2FC: -0.087
Gene RPA2 (Gene 6118), cell cycle genes
  log2FC RPA2: 0.00567
Gene RPS3 (6188), apoptosis genes
  RPS3 log2FC: 0.020
Gene RPS6KA2 (6196), apoptosis genes
  RPS6KA2 log2FC: 0.035
Gene RPS6KB1 (Gene 6198), cell cycle genes
  log2FC: 0.426
Gene RRN3 (653390), apoptosis genes
  RRN3 log2FC: -0.022
Gene RSPO1 (Gene 284654), cell cycle genes
  log2FC: -0.127
Gene RYR2 (6262), apoptosis genes
  RYR2 log2FC: -0.020
Gene S100A9 (6280), apoptosis genes
  S100A9 log2FC: 0.039
Gene S100A14 (57402), apoptosis genes
  S100A14 log2FC: 0.034
Gene SART1 (Gene 9092), cell cycle genes
  log2FC: -0.304
Gene SCIN (85477), apoptosis genes
  SCIN log2FC: -0.012
Gene SEH1L (Gene 81929), cell cycle genes
  log2FC: -0.373
Gene SEMA5A (9037), apoptosis genes
  SEMA5A log2FC: -0.032
Gene SENP2 (Gene 59343), cell cycle genes
  log2FC SENP2: -0.00743
Gene SERINC3 (10955), apoptosis genes
  SERINC3 log2FC: 0.046
Gene SERPINE1 (5054), apoptosis genes
  SERPINE1 log2FC: -0.036
Gene SESN1 (Gene 27244), cell cycle genes
  log2FC: 0.237
Gene SHF (90525), apoptosis genes
  SHF log2FC: 0.026
Gene SKIL (6498), apoptosis genes
  SKIL log2FC: 0.046
Gene SKIL (Gene 6498), cell cycle genes
  log2FC SKIL: 0.046
Gene SLBP (Gene 7884), cell cycle genes
  log2FC: 0.333
Gene SLC25A6 (293), apoptosis genes
  SLC25A6 log2FC: 0.025
Gene SLC26A8 (Gene 116369), cell cycle genes
  log2FC SLC26A8: -0.003
Gene SLC40A1 (30061), apoptosis genes
  SLC40A1 log2FC: -0.005
Gene SMAD1 (4086), apoptosis genes
  SMAD1 log2FC: -0.074
Gene SMNDC1 (10285), apoptosis genes
  SMNDC1 log2FC: -0.102
Gene SOD1 (6647), apoptosis genes
  SOD1 log2FC: 0.073
Gene SOS1 (6654), apoptosis genes
  SOS1 log2FC: 0.035
Gene SOX8 (30812), apoptosis genes
  SOX8 log2FC: -0.391
Gene SPO11 (Gene 23626), cell cycle genes
  log2FC SPO11: 0.008
Gene SPTAN1 (6709), apoptosis genes
  SPTAN1 log2FC: 0.094
Gene SRC (Gene 6714), cell cycle genes
  log2FC: -0.316
Gene STAG1 (Gene 10274), cell cycle genes
  log2FC: 0.343
Gene STK3 (6788), apoptosis genes
  STK3 log2FC: 0.083
Gene SULF1 (23213), apoptosis genes
  SULF1 log2FC: -0.096
Gene SUPT5H (Gene 6829), cell cycle genes
  log2FC: -0.331
Gene SUV39H2 (Gene 79723), cell cycle genes
  log2FC: -0.388
Gene SYCP2 (10388), apoptosis genes
  SYCP2 log2FC: 0.016
Gene SYCP2 (Gene 10388), cell cycle genes
  log2FC SYCP2: 0.016
Gene SYCP3 (Gene 50511), cell cycle genes
  log2FC SYCP3: 0.00367
Gene TAF2 (Gene 6873), cell cycle genes
  log2FC: 0.361
Gene TAF6 (Gene 6878), cell cycle genes
  log2FC TAF6: 0.055
Gene TAOK2 (Gene 9344), cell cycle genes
  log2FC: -0.736
Gene TEK (7010), apoptosis genes
  TEK log2FC: -0.008
Gene TEX14 (Gene 56155), cell cycle genes
  log2FC: 0.240
Gene TEX15 (Gene 56154), cell cycle genes
  log2FC: 0.238
Gene TFAP2D (83741), apoptosis genes
  TFAP2D log2FC: -0.029
Gene TGFA (Gene 7039), cell cycle genes
  log2FC: -0.305
Gene TGFB2 (7042), apoptosis genes
  TGFB2 log2FC: -0.011
Gene TGFB2 (Gene 7042), cell cycle genes
  log2FC TGFB2: -0.011
Gene THEM4 (117145), apoptosis genes
  THEM4 log2FC: -0.054
Gene THOC5 (Gene 8563), cell cycle genes
  log2FC THOC5: 0.010
Gene TMBIM4 (51643), apoptosis genes
  TMBIM4 log2FC: 0.025
Gene TMEM67 (Gene 91147), cell cycle genes
  log2FC: 0.184
Gene TMEM102 (284114), apoptosis genes
  TMEM102 log2FC: -0.101
Gene TNFRSF1B (7133), apoptosis genes
  TNFRSF1B log2FC: -0.022
Gene TNFRSF8 (943), apoptosis genes
  TNFRSF8 log2FC: 0.055
Gene TNFRSF10C (8794), apoptosis genes
  TNFRSF10C log2FC: 0.00147
Gene TNFSF8 (944), apoptosis genes
  TNFSF8 log2FC: -0.043
Gene TNFSF9 (8744), apoptosis genes
  TNFSF9 log2FC: 0.017
Gene TNFSF10 (8743), apoptosis genes
  TNFSF10 log2FC: -0.021
Gene TNFSF12 (8742), apoptosis genes
  TNFSF12 log2FC: 0.112
Gene TNFSF14 (8740), apoptosis genes
  TNFSF14 log2FC: 0.017
Gene TNFSF15 (9966), apoptosis genes
  TNFSF15 log2FC: 0.027
Gene TNFSF18 (8995), apoptosis genes
  TNFSF18 log2FC: 0.00185
Gene TP73 (Gene 7161), cell cycle genes
  log2FC: -0.503
Gene TPD52L1 (Gene 7164), cell cycle genes
  log2FC: 0.379
Gene TPX2 (22974), apoptosis genes
  TPX2 log2FC: 0.049
Gene TRAF2 (7186), apoptosis genes
  TRAF2 log2FC: -0.056
Gene TRAF3IP2 (10758), apoptosis genes
  TRAF3IP2 log2FC: -0.070
Gene TRIP13 (Gene 9319), cell cycle genes
  log2FC TRIP13: 0.007
Gene TUBGCP6 (Gene 85378), cell cycle genes
  log2FC: -0.470
Gene TXNDC5 (81567), apoptosis genes
  TXNDC5 log2FC: 0.070
Gene TYMS (Gene 7298), cell cycle genes
  log2FC TYMS: -0.0037
Gene UBD (10537), apoptosis genes
  UBD log2FC: -0.00756
Gene UBE2V2 (7336), apoptosis genes
  UBE2V2 log2FC: -0.109
Gene UNC13B (10497), apoptosis genes
  UNC13B log2FC: 0.009
Gene VDAC2 (7417), apoptosis genes
  VDAC2 log2FC: 0.033
Gene VIM (7431), apoptosis genes
  VIM log2FC: 0.051
Gene VIP (7432), apoptosis genes
  VIP log2FC: -0.146
Gene VNN1 (8876), apoptosis genes
  VNN1 log2FC: 0.157
Gene VRK1 (Gene 7443), cell cycle genes
  log2FC: 0.426
Gene WNK3 (65267), apoptosis genes
  WNK3 log2FC: 0.012
Gene WTAP (Gene 9589), cell cycle genes
  log2FC: -0.387
Gene YY1AP1 (Gene 55249), cell cycle genes
  log2FC: 0.220
Gene ZBTB16 (7704), apoptosis genes
  ZBTB16 log2FC: 0.144
Gene ZC3H12D (Gene 85313), cell cycle genes
  log2FC ZC3H12D: -0.006
Gene ZC3HC1 (Gene 51530), cell cycle genes
  log2FC: 0.230
Gene ZNF205 (7755), apoptosis genes
  ZNF205 log2FC: -0.229
Gene ZNF443 (10224), apoptosis genes
  ZNF443 log2FC: -0.028
Gene ZNF503 (Gene 84858), cell cycle genes
  log2FC: -0.229
Gene ZNF622 (90441), apoptosis genes
  ZNF622 log2FC: 0.041

Reference: PMC4303209, “A novel phosphatidylinositol 3-kinase (PI3K) inhibitor directs a potent FOXO-dependent, p53-independent cell cycle arrest phenotype characterized by the differential induction of a subset of FOXO-regulated genes” (Breast Cancer Research : BCR, 2014)
